We go through 24 molecules from patent publication US20190119282A1, “IMIDAZOPYRIDAZINES USEFUL AS INHIBITORS OF THE PAR-2 SIGNALING PATHWAY” (Vertex Pharmaceuticals Incorporated, priority 2013, published 2019).

The target of assay [1] is T1, PAR2 (HT-29 cells, SLIGKV activation) (Homo sapiens, UniProt P55085).
T1 construct: host or cells: HT-29 cells
T1 sequence (P55085 26-397): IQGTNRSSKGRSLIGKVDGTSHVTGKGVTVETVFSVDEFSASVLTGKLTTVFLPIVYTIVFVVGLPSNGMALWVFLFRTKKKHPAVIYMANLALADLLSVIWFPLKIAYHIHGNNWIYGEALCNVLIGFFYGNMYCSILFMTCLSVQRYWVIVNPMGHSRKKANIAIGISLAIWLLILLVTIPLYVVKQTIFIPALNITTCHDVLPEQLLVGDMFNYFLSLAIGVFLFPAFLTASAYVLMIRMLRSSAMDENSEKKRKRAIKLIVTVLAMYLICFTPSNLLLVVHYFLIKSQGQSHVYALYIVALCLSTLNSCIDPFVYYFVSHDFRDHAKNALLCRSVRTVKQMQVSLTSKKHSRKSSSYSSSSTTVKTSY
Briefly: Ca FLIPR TETRA assay, ANTAGONIST mode, stimulation with 8 μM SLIGKV. Format: cell-based. To be noted: for IC50: HT-29 cells, stimulation with 8 μM SLIGKV. The method, boiled down: (§1)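 Cells plated overnight at 37 °C, 5% CO2 in 1% FBS medium; dye loading 45 min at 37 °C then 15 min r.t.; compound added from DMSO/HBSS dilution; first read for intrinsic Ca2+ activation; 30 min r.t. incubation; antagonist read after addition of the fixed activator (8 μM SLIGKV, 1 U/mL thrombin, 3.1 U/mL trypsin or 0.6 μM UTP).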

The target in assay [2] is T2, PAR2 (HT-29 cells, trypsin activation) (Homo sapiens, UniProt P55085).
T2 construct: host or cells: HT-29 cells
T2 sequence (P55085 26-397): T1 sequence (P55085 26-397)
Put plainly: Ca FLIPR TETRA assay, ANTAGONIST mode, stimulation with 3.1 U/mL trypsin. Format: cell-based. The settings on record: HT-29 cells, stimulation with 3.1 U/mL trypsin. The method, boiled down: as §1

Assay [3] concerns UTP-stimulated Ca2+ response in HT-29 cells. Put plainly: Ca FLIPR TETRA assay, ANTAGONIST mode, stimulation with 0.6 μM UTP. Format: cell-based, human. The settings on record: Homo sapiens; HT-29 cells, stimulation with 0.6 μM UTP. The method, boiled down:
as §1

For assay [4], the system named is Thrombin-stimulated Ca2+ response in HT-29 cells. Put plainly: Ca FLIPR TETRA assay, ANTAGONIST mode, stimulation with 1 U/mL Thrombin. Format: cell-based, human. The settings on record: Homo sapiens; HT-29 cells, stimulation with 1 U/mL Thrombin. In outline: as §1

As a reminder, the IC50 is the concentration that inhibits the measured activity by half. For the molecule `CC(C)c1cc(C#CC2CC2)nn2cc(C(=O)N3CCN(C(=O)C4(O)CCC4)CC3(C)C)nc12` [Compound I-42, [6-(2-Cyclopropylethynyl)-8-isopropyl-imidazo[1,2-b]pyridazin-2-yl]-[4-(1-hydroxycyclobutanecarbonyl)-2,2-dimethyl-piperazin-1-yl]methanone], the IC50 in assay [1] is 2.2 µM; in assay [2], 5.2 µM; in assay [3], 41 µM; in assay [4], 32 µM.
On to `CC(C)c1cc(C2=CCCC2)nn2cc(C(=O)N3CCN(C(=O)C4(O)CCC4)CC3(C)C)nc12` [Compound I-43, [6-(Cyclopenten-1-yl)-8-isopropyl-imidazo[1,2-b]pyridazin-2-yl]-[4-(1-hydroxycyclobutanecarbonyl)-2,2-dimethyl-piperazin-1-yl]methanone], for which the 50% inhibitory concentration (IC50) in assay [1] came to 0.48 µM; in assay [2], 1.1 µM; in assay [3] it was 31 µM; in assay [4], 27 µM.
In the case of `CC(C)c1cc(C2=CCOCC2)nn2cc(C(=O)N3CCN(C(=O)C4(O)CCC4)CC3(C)C)nc12` [Compound I-44, [6-(3,6-dihydro-2H-pyran-4-yl)-8-isopropyl-imidazo[1,2-b]pyridazin-2-yl]-[4-(1-hydroxycyclobutanecarbonyl)-2,2-dimethyl-piperazin-1-yl]methanone], the 50% inhibitory concentration (IC50) is 5 µM in assay [1], 9.5 µM in assay [2], above 50 µM in assay [3] and above 50 µM in assay [4].
On to `CC(C)c1cc(C2CCOCC2)nn2cc(C(=O)N3CCN(C(=O)C4(O)CCC4)CC3(C)C)nc12` [Compound I-45, [4-(1-hydroxycyclobutanecarbonyl)-2,2-dimethyl-piperazin-1-yl]-(8-isopropyl-6-tetrahydropyran-4-yl-imidazo[1,2-b]pyridazin-2-yl)methanone], for which the IC50 was 20 µM in assay [1], above 50 µM in assay [2], above 50 µM in assay [3] and above 50 µM in assay [4].
For `C[C@H]1CN(C(=O)c2cn3nc(-c4ccc(F)cc4)cc(C(F)(F)F)c3n2)CCN1C(=O)OCc1ccccc1` [Compound I-46], the IC50 was 0.04 µM in assay [1], 0.095 µM in assay [2], above 5 µM in assay [3] and above 5 µM in assay [4].
Take `O=C(c1cn2nc(-c3ccc(F)cc3)cc(C(F)(F)F)c2n1)N1CCCCC1CO` (stereo not drawn) [Compound I-47]: the 50% inhibitory concentration (IC50) worked out at 3.1 µM in assay [1], 7.5 µM in assay [2], 32 µM in assay [3] and 16 µM in assay [4].
As to `COC(=O)[C@@H]1C[C@@H](C)CN(C(=O)c2cn3nc(-c4ccc(F)cc4)cc(C(F)(F)F)c3n2)C1` [Compound I-49], the IC50 in assay [1] is 0.53 µM; in assay [2], 1.5 µM; in assay [3], 6 µM; in assay [4], 5.2 µM.
As for `O=C(c1cn2nc(-c3ccc(F)cc3)cc(C(F)(F)F)c2n1)N1CCN(C(=O)N2CCCCC2)CC1` [Compound I-50], the “SLIGKV % @ concentration” value in assay [1] (@ 1.9 (μM)) stood at 44% @ 1.9. The concentration for half-maximal inhibition (IC50) in assay [2] is 27 µM; in assay [3], above 50 µM; in assay [4] it was above 50 µM.
For `CC(C)(C)C[C@@H](O)C(=O)N1CCN(C(=O)c2cn3nc(-c4ccc(F)cc4)cc(C(F)(F)F)c3n2)CC1` [Compound I-52], the IC50 stood at 0.14 µM in assay [1], 0.35 µM in assay [2], 16 µM in assay [3] and 47 µM in assay [4].
For `O=C(OCc1ccccc1)N1CCN(C(=O)c2cn3nc(-c4ccc(F)cc4)cc(C(F)(F)F)c3n2)CC1` [Compound I-53], in assay [1] (@ 5.6 (μM)), the “SLIGKV % @ concentration” value is given as 55% @ 5.6. The IC50 in assay [2] was 21 µM; in assay [3], above 50 µM; in assay [4], above 50 µM.
For the molecule `CC(C(=O)NC1CC1)N1CCN(C(=O)c2cn3nc(-c4ccc(F)cc4)cc(C(F)(F)F)c3n2)CC1` (stereo not drawn) [Compound I-55], the IC50 in assay [1] was 0.95 µM; in assay [2], 3.1 µM; in assay [3] it was above 50 µM; in assay [4], above 50 µM.
Turning to `O=C(c1cn2nc(-c3ccc(F)cc3)cc(C(F)(F)F)c2n1)N1CCN(CCn2ccnc2)CC1` [Compound I-56], the IC50 in assay [1] was 23 µM; in assay [2], above 50 µM; in assay [3], above 50 µM; in assay [4], above 50 µM.
On to `CCS(=O)(=O)N1CCN(C(=O)c2cn3nc(-c4ccc(F)cc4)cc(C(F)(F)F)c3n2)CC1` [Compound I-57], for which the IC50 was 0.59 µM in assay [1], 48 µM in assay [2], above 50 µM in assay [3] and above 50 µM in assay [4].
For `CCC(=O)N1CCN(C(=O)c2cn3nc(-c4ccc(F)cc4)cc(C(F)(F)F)c3n2)CC1` [Compound I-59], the IC50 is 22 µM in assay [1], 2 µM in assay [2], above 50 µM in assay [3] and above 50 µM in assay [4].
Regarding `Cc1cc(-c2ccc(F)cc2)nn2cc(C(=O)N3CCC(C#N)CC3)nc12` [Compound I-60], the 50% inhibitory concentration (IC50) was determined as 7.9 µM in assay [1], 14 µM in assay [2], 40 µM in assay [3] and 32 µM in assay [4].
On the same counts, the results for `Cc1cc(-c2ccc(F)cc2)nn2cc(C(=O)N3CCCC4(COC4)C3)nc12` [Compound I-61] are 13 µM, 19 µM, 38 µM and 26 µM.
On the same counts, the results for `CCOC1CCN(C(=O)c2cn3nc(-c4ccc(F)cc4)cc(C)c3n2)CC1` [Compound I-62] are 7.4 µM, 29 µM, 44 µM and 38 µM.
Take `CCNC(=O)OC1CCN(C(=O)c2cn3nc(-c4ccc(F)cc4)cc(C)c3n2)CC1` [Compound I-63]: the IC50 in assay [1] worked out at 1 µM; in assay [2], 4.1 µM; in assay [3] it was 37 µM; in assay [4], 35 µM.
In the same order, the values of `COC(=O)[C@@H]1CCN(C(=O)c2cn3nc(-c4ccc(F)cc4)cc(C(F)(F)F)c3n2)C[C@@H]1C` [Compound I-64] are 0.11 µM, 0.22 µM, 42 µM and 5.7 µM.
With `O=C1CCN(C(=O)c2cn3nc(-c4ccc(F)cc4)cc(C(F)(F)F)c3n2)CC1` [Compound I-66], the IC50 in assay [1] is 5 µM; in assay [2] it was 12 µM; in assay [3] it was above 50 µM; in assay [4], 48 µM.
In the same order, the values of `O=C(c1cn2nc(-c3ccc(F)cc3)cc(C(F)(F)F)c2n1)N1CCCCC1c1ccncc1` (stereo not drawn) [Compound I-67] are 3.1 µM, 3.6 µM, 8.1 µM and 6.7 µM.
On to `CC1CN(C(=O)c2cn3nc(-c4ccc(F)cc4)cc(C(F)(F)F)c3n2)CCC1O` (stereo not drawn) [Compound I-68], for which the IC50 in assay [1] was determined as 5.9 µM; in assay [2], 13 µM; in assay [3], 29 µM; in assay [4], 19 µM.
With `CC(C)(O)C1CCCN(C(=O)c2cn3nc(-c4ccc(F)cc4)cc(C(F)(F)F)c3n2)C1` (stereo not drawn) [Compound I-69], the IC50 was determined as 6 µM in assay [1], 9.3 µM in assay [2], 36 µM in assay [3] and 8.5 µM in assay [4].
With `O=C(c1cn2nc(-c3ccc(F)cc3)cc(C(F)(F)F)c2n1)N1CC[C@@]2(O)CCCC[C@H]2C1` [Compound I-70], the half-inhibitory concentration (IC50) is 3.7 µM in assay [1], 5.7 µM in assay [2], 17 µM in assay [3] and 12 µM in assay [4].
